# According to patent publication US20130150376A1, “Novel Sultam Compounds” (PFIZER INC., priority 2010, published 2013):
# Counter-ions that a name gives are not always drawn. Like-named read-outs stand apart in the source and are kept apart here.
# Molecular target: T1, BACE1 enzyme (soluble, truncated BACE enzyme, BACE1deltaTM96His) (Homo sapiens, UniProt P56817)
# T1 construct: soluble, truncated BACE enzyme (BACE1deltaTM96His); His; made in house
# Assay: BACE1 Fluorescent Polarization (FP) Assay
# Assay type: biochemical
# Conditions: geometric mean of 2-4 IC50 determinations unless footnoted (^2: 5-6 determinations; ^4: single determination)
# Excerpt: BACE1 Fluorescent Polarization (FP) Assay
# The fluorescently tagged synthetic substrate, Biotin-GLTNIKTEEISEISŶEVEFR-C[oregon green]KK-OH can be efficiently cleaved by the beta-secretase enzyme and is therefore useful to assay beta-secretase activity in the presence or absence of inhibitory compounds. The his tagged BACE1 enzyme was affinity purified material from conditioned media of CHO-K1 cells that had been transfected to express soluble, truncated BACE enzyme (BACE1deltaTM96His). Compounds were incubated in a ½ log dose response (from a top concentration of 100 μM) with BACE1 enzyme (0.1 nM final) and the biotinylated fluorescent peptide substrate (150 nM final) in assay buffer containing 100 mM sodium acetate, pH 4.5 (brought to pH with acetic acid), and 0.001% Tween-20. Total reaction volumes of 30 μL were carried out in 384-well black plates (Thermo Scientific 4318). Plates were covered and incubated for 3 hours at 37° C. The reactions were then stopped by addition of 30 μL of 1.5 μM Streptavidin (Pierce, 21125). After a 10 minute incubation at room temperature, plates were read on a PerkinElmer Envision for fluorescence polarization (Ex485 nm/Em530 nm). The activity of the beta-secretase enzyme is detected by changes in the fluorescence polarization (Δ mP) that occur when the substrate is cleaved by the enzyme.
# [1] = 8-point curve, read-out: BACE activity, 8-point curve, IC50
# [2] = 11-point curve, read-out: BACE activity, 11-point curve, IC50
# T1 sequence (P56817 46-457): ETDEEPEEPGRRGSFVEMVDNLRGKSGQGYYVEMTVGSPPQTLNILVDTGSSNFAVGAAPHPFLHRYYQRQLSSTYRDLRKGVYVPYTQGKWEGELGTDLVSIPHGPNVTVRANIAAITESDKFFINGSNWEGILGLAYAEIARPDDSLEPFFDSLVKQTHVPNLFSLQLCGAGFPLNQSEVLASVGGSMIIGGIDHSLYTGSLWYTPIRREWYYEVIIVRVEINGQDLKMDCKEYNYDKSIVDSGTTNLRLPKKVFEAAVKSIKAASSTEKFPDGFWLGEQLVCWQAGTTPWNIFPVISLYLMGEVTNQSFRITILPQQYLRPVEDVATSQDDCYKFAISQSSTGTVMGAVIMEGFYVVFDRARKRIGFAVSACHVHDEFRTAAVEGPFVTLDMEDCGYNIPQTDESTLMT
IC50 [1] [nM],IC50 [2] [nM],SMILES
1290,2490,"C[C@H]1C[C@@]2(C=CS(=O)(=O)N2c2cccc(F)c2)CCN1Cc1ncoc1C1CCOC1 (stereo partly drawn) [Example 71, (5R,7S)-1-(3-fluorophenyl)-7-methyl-8-{[5-(tetrahydrofuran-3-yl)-1,3-oxazol-4-yl]methyl}-2-thia-1,8-diazaspiro[4.5]dec-3-ene 2,2-dioxide]"
–,240,"Cc1scnc1-c1cc(CN2CC[C@@]3(C[C@@H]2C)C(=O)CS(=O)(=O)N3c2cccc(F)c2)ccc1O [Example 83, (5R,7S)-1-(3-fluorophenyl)-8-[4-hydroxy-3-(5-methyl-1,3-thiazol-4-yl)benzyl]-7-methyl-2-thia-1,8-diazaspiro[4.5]decan-4-one 2,2-dioxide]"
–,5720,"CC(C)Oc1cccc(CN2CC[C@@]3(C[C@@H]2C)C(=O)CS(=O)(=O)N3c2cccc(F)c2)c1 [Example 81, (5R,7S)-1-(3-fluorophenyl)-8-(3-isopropoxybenzyl)-7-methyl-2-thia-1,8-diazaspiro[4.5]decan-4-one 2,2-dioxide]"
754,478,"C[C@H]1C[C@@]2(C=CS(=O)(=O)N2c2cccc(F)c2)CCN1Cc1ccc(O)c(Cl)c1 [Example 15, 2-chloro-4-{[(5R,7S)-1-(3-fluorophenyl}-7-methyl-2,2-dioxido-2-thia-1,8-diazaspiro[4.5]dec-3-en-8-yl]methyl}phenol, hydrochloride salt]"
–,3280,"Cc1scnc1-c1cc(CN2CC[C@]3(CCS(=O)(=O)N3c3ccccn3)C[C@@H]2C)ccc1O [Example 90, 4-{[(5R,7S)-7-methyl-2,2-dioxido-1-(pyridin-2-yl)-2-thia-1,8-diazaspiro[4.5]dec-8-yl]methyl}-2-(5-methyl-1,3-thiazol-4-yl)phenol]"
310,–,"C[C@H]1C[C@@]2(C=CS(=O)(=O)N2c2cccc(F)c2)CCN1Cc1scnc1CC1CCC1 [Example 19, (5R,7S)-8-{[4-(cyclobutylmethyl)-1,3-thiazol-5-yl]methyl}-1-(3-fluorophenyl)-7-methyl-2-thia-1,8-diazaspiro[4.5]dec-3-ene 2,2-dioxide]"
5600,15300,"Cc1ccsc1-c1ncsc1CN1CC[C@]2(C=CS(=O)(=O)N2c2cccc(F)c2)C[C@@H]1C [Example 45, (5R,7S)-1-(3-fluorophenyl)-7-methyl-8-{[4-(3-methyl-2-thienyl)-1,3-thiazol-5-yl]methyl}-2-thia-1,8-diazaspiro[4.5]dec-3-ene 2,2-dioxide]"
5600,9030,"C[C@H]1C[C@@]2(C=CS(=O)(=O)N2c2cccc(F)c2)CCN1Cc1scnc1-c1cccnc1 [Example 48, (5R,7S)-1-(3-fluorophenyl)-7-methyl-8-[(4-pyridin-3-yl-1,3-thiazol-5-yl)methyl]-2-thia-1,8-diazaspiro[4.5]dec-3-ene 2,2-dioxide]"
181,–,"C[C@H]1C[C@@]2(C=CS(=O)(=O)N2c2cccc(F)c2)CCN1Cc1ccc(O)c(OC(F)(F)F)c1 [Example 10, 4-{[(5R,7S)-1-(3-fluorophenyl)-7-methyl-2,2-dioxido-2-thia-1,8-diazaspiro[4.5]dec-3-en-8-yl]methyl}-2-(trifluoromethoxy)phenol, hydrochloride salt]"
0.97,24.3,"Cc1csnc1-c1cc(CN2CC[C@]3(C=CS(=O)(=O)N3c3cccc(F)c3)C[C@@H]2C)ccc1O [Example 72, 4-{[(5R,7S)-1-(3-fluorophenyl)-7-methyl-2,2-dioxido-2-thia-1,8-diazaspiro[4.5]dec-3-en-8-yl]methyl}-2-(4-methyl-1,2-thiazol-3-yl)phenol, trifluoroacetic acid salt]"
18.4,–,"C[C@H]1C[C@@]2(C=CS(=O)(=O)N2c2cccc(F)c2)CCN1Cc1ccc(O)c(OC2CC2)c1 [Example 13, 2-(cyclopropyloxy)-4-{[(5R,7S)-1-(3-fluorophenyl)-7-methyl-2,2-dioxido-2-thia-1,8-diazaspiro[4.5]dec-3-en-8-yl]methyl}phenol, hydrochloride salt]"
703,2380,"C[C@H]1C[C@@]2(C=CS(=O)(=O)N2c2cccc(F)c2)CCN1Cc1ccc2[nH]ccc2c1 [Example 41, (5R,7S)-1-(3-fluorophenyl)-8-(1H-indol-5-ylmethyl)-7-methyl-2-thia-1,8-diazaspiro[4.5]dec-3-ene 2,2-dioxide]"
–,117,"COC1=CS(=O)(=O)N(c2cccc(F)c2)[C@@]12CCN(Cc1ccc(O)c(-c3nscc3C)c1)[C@@H](C)C2 [Example 86, 4-{[(5R,7S)-1-(3-fluorophenyl)-4-methoxy-7-methyl-2,2-dioxido-2-thia-1,8-diazaspiro[4.5]dec-3-en-8-yl]methyl}-2-(4-methylisothiazol-3-yl)phenol, ammonium salt]"
59.3,429,"CC(C)Oc1cc(CN2CC[C@]3(C=CS(=O)(=O)N3c3ccc(F)c(F)c3)C[C@@H]2C)ccc1O [Example 67, 4-{[(5R,7S)-1-(3,4-difluorophenyl)-7-methyl-2,2-dioxido-2-thia-1,8-diazaspiro[4.5]dec-3-en-8-yl]methyl}-2-isopropoxyphenol]"
40.5,–,"Cc1ccccc1-c1cccc(CN2CC[C@]3(CCS(=O)(=O)N3c3cccc(F)c3)C[C@@H]2C)c1 [Example 52, (5R,7S)-1-(3-fluorophenyl)-7-methyl-8-[(2′-methylbiphenyl-3-yl)methyl]-2-thia-1,8-diazaspiro[4.5]decane 2,2-dioxide, formate salt]"
414,–,"C[C@H]1C[C@@]2(C=CS(=O)(=O)N2c2cccc(F)c2)CCN1Cc1ncoc1-c1cccnc1 [Example 22, (5R,7S)-1-(3-fluorophenyl)-7-methyl-8-[(5-pyridin-3-yl-1,3-oxazol-4-yl)methyl]-2-thia-1,8-diazaspiro[4.5]dec-3-ene 2,2-dioxide, hydrochloride salt]"
64.9,1230,"Cc1scnc1-c1cc(CN2CC[C@]3(CCS(=O)(=O)N3c3cnccn3)C[C@@H]2C)ccc1O [Example 89, 4-{[(5R,7S)-7-methyl-2,2-dioxido-1-(pyrazin-2-yl)-2-thia-1,8-diazaspiro[4.5]dec-8-yl]methyl}-2-(5-methyl-1,3-thiazol-4-yl)phenol]"
–,5890,"C[C@H]1C[C@@]2(C=CS(=O)(=O)N2c2cccc(F)c2)CCN1Cc1ncoc1-c1cccs1 [Example 34, (5R,7S)-1-(3-fluorophenyl)-7-methyl-8-{[5-(2-thienyl)-1,3-oxazol-4-yl]methyl}-2-thia-1,8-diazaspiro[4.5]dec-3-ene 2,2-dioxide, hydrochloride salt]"
1380,2380,"C[C@H]1C[C@@]2(C=CS(=O)(=O)N2c2cccc(F)c2)CCN1Cc1ncoc1-c1cncc(F)c1 [Example 40, (5R,7S)-1-(3-fluorophenyl)-8-{[5-(5-fluoropyridin-3-yl)-1,3-oxazol-4-yl]methyl}-7-methyl-2-thia-1,8-diazaspiro[4.5]dec-3-ene 2,2-dioxide, hydrochloride salt]"

SMILES,IC50 [1] [nM],IC50 [2] [nM]
"Cc1scnc1-c1cc(CN2CC[C@]3(C=CS(=O)(=O)N3c3cccc(F)c3)C[C@@H]2C)ccc1O [Example 73, 4-{[(5R,7S)-1-(3-fluorophenyl)-7-methyl-2,2-dioxido-2-thia-1,8-diazaspiro[4.5]dec-3-en-8-yl]methyl}-2-(5-methyl-1,3-thiazol-4-yl)phenol, ammonium sail]",2.44,44.5
